Results from publication PMC10233092, “Selective Janus kinase 1 inhibition resolves inflammation and restores hair growth offering a viable treatment option for alopecia areata” (Skin Health and Disease, 2023).
Values joined by “and” are separate entries in the source; they are usually repeats but may differ in a detail not shown here. Equal entries are not always repeated.

What was measured:
[1] = system: C3H/HeJ mouse model of AA; test: Hair growth (Hair Index Score) in C3H/HeJ graft-induced AA mice; assay type: in vivo; conditions: for Hair index score (% area x score, 0 to 3): individual mice and mean±SD
Protocol: Female C3H/HeJ graft‐induced mice were used as a preclinical model of Alopecia Areata (AA) according to previous publications.[45], [46], [47] Healthy C3H/HeJ and mice with fully developed AA (16–24 weeks after induction of disease) were monitored by means of body weight and hair index score on a weekly basis for 12 weeks, with free access to food and water (Healthy and AA groups, respectively).
Hair growth was evaluated using a scoring index (Hair Index Score, HIS). A score from 0 to 3 (0 = no fur, 1 = stubble, short broken hairs, 2 = sparse, intermediate length hairs, 3 = normal length and density hairs) was taken times the surface area of the mouse with each respective score (dorsal area = 50%, ventral area = 50%).
12 mice were given once daily servings of Cmpd A for free eating at approximately 100 mg/kg (compound dissolved in 10 ml tap water and mixed with 5 g grounded R70 standard rodent chow from Lantmännen, Sweden) for 4 weeks. Typically, these servings were finished within 2 h. Six mice were terminated at the end of the treatment period, blood and skin taken for determination of drug concentration and skin sampled for histopathological evaluation (see below, these mice are representing the systemic JAK1 inhibition group in histopathological evaluations). Skin biopsies for mRNA expression and blood was sampled from the other 6 mice where after these mice were followed off treatment for an additional 8 weeks when terminal samples were taken (8w off Tx group).
Another set of 6 mice were treated topically on the right side of their back with Cmpd B (0.1% cream formulation, Eucerin Aquaporin rich) for 12 weeks (local JAK1 inhibition group). Initially, twice weekly for 2 weeks followed by once weekly due to high tissue retention. Plasma exposure was evaluated during the course of the study as well as at termination when also skin was sampled for exposure, histopathological evaluation and mRNA expression.
The aim of the study was to achieve similar skin exposures by both routes of administration but only systemic exposure after oral administration. […] Blood, skin, lymph nodes and spleens were collected at termination for evaluation of exposure, mRNA expression, histopathology (RNAScope) and cell differentials (flow cytometry). Untreated healthy and alopecic mice served as controls (n = 6).

IL‐4, STAT6‐Luc = test: IL-4-induced JAK-STAT6-luciferase assay in U937 monocytes; assay type: cell-based; conditions: Homo sapiens, U-937, interleukin at EC80
JAK1 = JAK1 (Homo sapiens, UniProt P23458); test: JAK1 kinase inhibition, Calliper assay; assay type: biochemical; conditions: physiological ATP concentration of 5 mM
[2] = Solubility in phosphate buffer; assay type: physicochemical; conditions: pH 7.4, aqueous buffer
Source text: TABLE 1 In vitro potency and selectivity of JAK inhibitors | column: Solubility (μM) ^c

LogD7.4 = assay type: physicochemical; conditions: pH 7.4
Source text: TABLE 2 In vitro and in vivo DMPK properties of Cmpd A, B & C | column: In vitro mouse & physical chemical properties / LogD7.4

Basic pKa = assay type: physicochemical; conditions: read-out: Basic pKa's
Source text: TABLE 2 In vitro and in vivo DMPK properties of Cmpd A, B & C | column: In vitro mouse & physical chemical properties / Basic pKa's

[3] = Unbound fraction in tissue from rearranged Gillette equation; assay type: in vitro ADME, mouse
Source text: Detailed description in Supplementary materials.

JAK3 = molecular target: T1, JAK3 (Homo sapiens, UniProt P52333); test: JAK3 kinase inhibition, Calliper assay; assay type: biochemical; conditions: physiological ATP concentration of 5 mM
T1 sequence (P52333 1-1124): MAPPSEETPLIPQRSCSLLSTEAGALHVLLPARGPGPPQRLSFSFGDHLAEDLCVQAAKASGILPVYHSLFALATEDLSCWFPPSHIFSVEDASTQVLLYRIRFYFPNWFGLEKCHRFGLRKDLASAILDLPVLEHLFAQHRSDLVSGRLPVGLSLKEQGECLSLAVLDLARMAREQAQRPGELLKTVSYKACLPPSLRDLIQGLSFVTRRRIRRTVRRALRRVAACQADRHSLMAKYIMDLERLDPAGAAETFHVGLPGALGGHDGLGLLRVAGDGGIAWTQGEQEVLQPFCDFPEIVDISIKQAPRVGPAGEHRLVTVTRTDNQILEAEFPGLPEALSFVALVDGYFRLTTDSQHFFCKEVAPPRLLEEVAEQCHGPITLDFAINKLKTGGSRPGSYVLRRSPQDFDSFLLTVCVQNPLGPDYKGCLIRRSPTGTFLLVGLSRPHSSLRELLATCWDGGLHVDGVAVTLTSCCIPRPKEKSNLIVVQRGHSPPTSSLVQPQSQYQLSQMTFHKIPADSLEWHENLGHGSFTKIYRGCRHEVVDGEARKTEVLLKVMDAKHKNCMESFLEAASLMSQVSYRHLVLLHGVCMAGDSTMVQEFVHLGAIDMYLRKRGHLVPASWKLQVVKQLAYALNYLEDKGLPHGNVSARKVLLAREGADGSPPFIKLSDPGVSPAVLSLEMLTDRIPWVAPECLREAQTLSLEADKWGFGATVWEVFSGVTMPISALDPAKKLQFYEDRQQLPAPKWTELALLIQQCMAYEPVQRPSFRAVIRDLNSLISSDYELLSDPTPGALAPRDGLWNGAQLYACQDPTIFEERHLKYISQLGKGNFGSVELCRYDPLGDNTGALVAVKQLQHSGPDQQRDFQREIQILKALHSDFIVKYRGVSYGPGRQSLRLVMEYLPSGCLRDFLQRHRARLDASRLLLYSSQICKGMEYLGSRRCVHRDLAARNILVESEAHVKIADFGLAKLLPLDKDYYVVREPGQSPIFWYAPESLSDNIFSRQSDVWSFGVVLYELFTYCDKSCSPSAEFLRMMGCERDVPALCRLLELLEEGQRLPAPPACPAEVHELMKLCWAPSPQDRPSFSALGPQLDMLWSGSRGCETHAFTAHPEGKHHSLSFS

[4] = Caco permeability and efflux; assay type: in vitro ADME; conditions: human, Caco-2
Source text: TABLE 2 In vitro and in vivo DMPK properties of Cmpd A, B & C | column: In vitro mouse & physical chemical properties / Caco AtB 10^−6 cm/s/Efflux ratio ^b

Chain of JAK1 (P23458 whole entry, species assumed): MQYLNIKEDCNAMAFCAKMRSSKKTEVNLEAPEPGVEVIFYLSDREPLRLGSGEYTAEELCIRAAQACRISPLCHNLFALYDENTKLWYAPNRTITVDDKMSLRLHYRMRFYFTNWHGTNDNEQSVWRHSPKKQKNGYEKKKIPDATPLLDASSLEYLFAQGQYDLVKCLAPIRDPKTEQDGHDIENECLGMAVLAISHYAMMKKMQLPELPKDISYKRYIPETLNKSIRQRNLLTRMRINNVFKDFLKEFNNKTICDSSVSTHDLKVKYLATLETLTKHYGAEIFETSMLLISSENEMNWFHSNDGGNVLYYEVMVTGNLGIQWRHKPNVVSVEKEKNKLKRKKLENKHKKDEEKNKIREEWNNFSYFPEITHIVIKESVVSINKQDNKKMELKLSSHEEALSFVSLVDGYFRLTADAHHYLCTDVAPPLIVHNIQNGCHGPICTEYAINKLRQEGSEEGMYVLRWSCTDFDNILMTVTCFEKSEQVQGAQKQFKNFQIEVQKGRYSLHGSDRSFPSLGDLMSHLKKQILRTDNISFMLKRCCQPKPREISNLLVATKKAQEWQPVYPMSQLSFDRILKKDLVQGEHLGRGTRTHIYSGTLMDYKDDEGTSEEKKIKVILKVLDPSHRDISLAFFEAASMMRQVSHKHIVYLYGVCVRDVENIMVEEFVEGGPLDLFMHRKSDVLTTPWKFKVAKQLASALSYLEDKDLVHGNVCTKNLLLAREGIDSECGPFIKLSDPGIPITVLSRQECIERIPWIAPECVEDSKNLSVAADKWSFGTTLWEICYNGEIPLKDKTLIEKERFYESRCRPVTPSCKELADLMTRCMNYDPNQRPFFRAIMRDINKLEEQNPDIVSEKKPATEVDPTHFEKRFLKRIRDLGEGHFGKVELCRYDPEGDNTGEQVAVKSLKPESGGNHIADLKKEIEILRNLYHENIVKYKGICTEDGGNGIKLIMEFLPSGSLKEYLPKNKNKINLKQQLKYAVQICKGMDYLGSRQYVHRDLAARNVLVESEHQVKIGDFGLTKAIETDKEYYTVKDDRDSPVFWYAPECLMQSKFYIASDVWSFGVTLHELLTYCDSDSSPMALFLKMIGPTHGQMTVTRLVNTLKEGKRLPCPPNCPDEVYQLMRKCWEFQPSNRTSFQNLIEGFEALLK

Compound: Cc1cnc(Nc2cccnc2F)nc1-c1c[nH]c2c(NC(=O)[C@@H](C)N3CCN(C)CC3)cccc12 [Cmpd A]
- remission after treatment cessation ([1]; AA mice, 4 weeks treatment, followed 8 weeks off treatment): relapsed after treatment cessation
- hair growth, result in words ([1]; AA mice, oral daily servings (systemic exposure)): quick and complete restoration of hair growth
- time to complete regrowth (Hair Index Score) ([1]; AA mice, oral treatment, n = 6 per group): ≤ 4 weeks
- Hair index score (% area x score, 0 to 3) ([1]; Systemic JAK1i group terminated at w4 (oral ~100 mg/kg daily), w0, n=6, 100 mg/kg): 0 and 20
- Hair index score (% area x score, 0 to 3) ([1]; Systemic JAK1i group terminated at w4 (oral ~100 mg/kg daily), w0, n=6, 100 mg/kg, mean): 3±8
- Hair index score (% area x score, 0 to 3) ([1]; Systemic JAK1i group terminated at w4, w1): 0 and 15 and 10
- Hair index score (% area x score, 0 to 3) ([1]; Systemic JAK1i group terminated at w4, w1, mean): 7±7
- Hair index score (% area x score, 0 to 3) ([1]; Systemic JAK1i group terminated at w4, w2): 160 and 170 and 180 and 120 and 190
- Hair index score (% area x score, 0 to 3) ([1]; Systemic JAK1i group terminated at w4, w2, mean): 163±24
- Hair index score (% area x score, 0 to 3) ([1]; Systemic JAK1i group terminated at w4, w3): 280 and 285 and 290 and 250 and 295
- Hair index score (% area x score, 0 to 3) ([1]; Systemic JAK1i group terminated at w4, w3, mean): 280±16
- Hair index score (% area x score, 0 to 3) ([1]; Systemic JAK1i group terminated at w4, w4): 300
- Hair index score (% area x score, 0 to 3) ([1]; Systemic JAK1i group terminated at w4, w4, mean): 300±0
- Hair index score (% area x score, 0 to 3) ([1]; Systemic JAK1i group treated 4 weeks then followed off treatment, w0, n=6): 125 and 50 and 20 and 90
- Hair index score (% area x score, 0 to 3) ([1]; Systemic JAK1i group treated 4 weeks then followed off treatment, w0, n=6, mean): 71±38
- Hair index score (% area x score, 0 to 3) ([1]; Systemic JAK1i group treated 4 weeks then off treatment, w1): 125 and 50 and 20 and 90
- Hair index score (% area x score, 0 to 3) ([1]; Systemic JAK1i group treated 4 weeks then off treatment, w1, mean): 71±38
- Hair index score (% area x score, 0 to 3) ([1]; Systemic JAK1i group treated 4 weeks then off treatment, w2): 170 and 200 and 140 and 180 and 190
- Hair index score (% area x score, 0 to 3) ([1]; Systemic JAK1i group treated 4 weeks then off treatment, w2, mean): 180±23
- Hair index score (% area x score, 0 to 3) ([1]; Systemic JAK1i group treated 4 weeks then off treatment, w4): 285 and 295 and 300
- Hair index score (% area x score, 0 to 3) ([1]; Systemic JAK1i group treated 4 weeks then off treatment, w4, mean): 295±5
- Hair index score (% area x score, 0 to 3) ([1]; Systemic JAK1i group treated 4 weeks then off treatment, w8 (4 weeks off)): 245 and 200 and 210 and 195 and 270 and 75
- Hair index score (% area x score, 0 to 3) ([1]; Systemic JAK1i group treated 4 weeks then off treatment, w8 (4 weeks off), mean): 199±67
- Hair index score (% area x score, 0 to 3) ([1]; Systemic JAK1i group treated 4 weeks then off treatment, w12 (8 weeks off)): 90 and 60 and 85 and 45 and 205 and 35
- Hair index score (% area x score, 0 to 3) ([1]; Systemic JAK1i group treated 4 weeks then off treatment, w12 (8 weeks off), mean): 87±62
- IC50 (IL‐4, STAT6‐Luc): 84 nM
- IC50 (JAK1): 27 nM
- solubility [2]: > 337 µM
- logD (LogD7.4): 2.9
- pKa (Basic pKa): 7.9
- f u, tissue ([3]; mouse, from rearranged Gillette equation, V blood 0.07 L/kg, V tissue 0.6 L/kg): 0.003
- unbound fraction in plasma compared to skin ([3]; skin value estimated from the Gillette equation): ~10 fold
- IC50 (JAK3): > 30000 nM
- efflux ratio ([4]; Efflux ratio = BtA/AtB): 1
- Papp A→B ([4]; read-out: Caco AtB): 21 ×10⁻⁶ cm/s
